Experimental data as given in patent US20080039410A1, “Inositol 1,4,5-Trisphosphate Receptor Mutants and Uses Thereof” (priority 2004, published 2008).
Values joined by “and” are separate entries in the source; they are usually repeats but may differ in a detail not shown here. Equal entries are not always repeated. “Also recorded” adds a separate entry of the source.

Assays:
[1] = test system: S2− InsP3R-1; test: Phosphorylation of Ser-1755 after forskolin in transfected HEK-293 cells (immunoprecipitation, Western blot); assay type: cell-based, rat; conditions: 20 μM forskolin 10 min, α-phospho-Ser-1755 blot
Protocol: HEK-293 cells were plated onto 25-cm^2 culture flasks and allowed to grow to near-confluency. Cells were transfected with 5 μg of each S2− InsP3R-1 DNA construct by using the LipofectAMINE reagent (Invitrogen) as per the manufacturer's instructions. The following day, batches of cells were treated in the presence or absence of 20 μM forskolin for 10 min, aspirated from flasks, lysed, and immunoprecipitated with a polyclonal α-InsP3R-1 antibody that recognizes amino acids 2731-2749 of InsP3R-1. Immunoprecipitates were separated on 5% SDS gels transferred to nitrocellulose and then probed with either the α-InsP3R-1 antibody or a polyclonal antibody that recognizes the phosphorylated state of Ser-1755 (39) (α-phospho-Ser-1755), kindly provided by Dr. S. Snyder. Blots that were probed with a-phospho-Ser-1755were stripped and reprobed with the α-InsP3R-1 antisera to confirm the presence and relative quantity of the InsP3R-1.
The enhanced apparent sensitivity of individual phosphomimetic mutants was essentially equal and intermediate between the sensitivity of the S2−WT and S2−EE mutations. […] To address this possibility directly, experiments were performed evaluating the effects of activating endogenous PKA in cells expressing S2−SE or S2−ES to mimic prior phosphorylation of an individual site. […] To test this, experiments were performed to determine the phosphorylation state of the various mutants after raising cAMP levels. These experiments were performed in HEK-293 cells because of the high transfection efficiency and low endogenous levels of InsP3R-1 (47, 99). […] Following incubation of the lysates with α-InsP3R-1 antibody, the immune complexes were captured and separated on SDS gels, and the phosphorylation status of Ser-1755 was determined by Western blotting with an antibody that specifically recognizes this phosphorylated residue in InsP3R-1 (39).

[2] = test system: S2− InsP3R-1; test: Potentiation of CCh-induced Ca2+ release after PKA activation (forskolin), S2− InsP3R-1 constructs in DT-40 3ko cells; assay type: cell-based, rat; conditions: for effect of forskolin treatment on CCh-induced [Ca^2+]i peak: threshold CCh; for Ca^2+ release after PKA activation: S2 − InsP3R-1 constructs, Table 2
Protocol: DT-40 cells lacking all three InsP3 receptor subtypes DT-40 3ko were transfected using electroporation, 350 V and 950 μF. 2×10^7 cells were co-transfected with 25 μg of the InsP3R cDNA, 25 μg of the muscarinic type 3 (M3) receptor, and 4 μg of the red fluorescent protein plasmid pHcRed1-N1. Cells were incubated with DNA in 500 μL of Optimem media on ice for 10 minutes. The cell/DNA mixture was electroporated, incubated on ice for 30 minutes, brought up to 5 ml with Optimem and placed in a 5% C02 incubator at 39° C. for 5 hours. The cells were then centrifuged and resuspended in 12 ml of complete RPMI media. Transfection efficiency was typically ˜20%. Experiments were performed within 32 hours of transfection.
Transfected DT-40 3ko cells were washed once in a HEPES-buffered physiological saline solution (HEPES-PSS) containing (in mM) 5.5 glucose, 137 NaCl, 0.56 MgCl2, 4.7 KCl, 1 Na2HPO4, 10 HEPES (pH 7.4), 1.2 CaCl2 and 1% w/v Bovine Serum Albumin. Cells were then resuspended in BSA HEPES-PSS with 1 μM Fura-2 (AM), placed on a 15 mm glass coverslip in a low volume perfusion chamber (Warner Instruments) and allowed to adhere for 30 minutes at room temperature. Cells were perfused continually for 10 minutes with HEPES-PSS before experimentation to allow Fura-2 de-esterification. A field of cells for each experiment was chosen that contained a wide range of transfection efficiency based upon the intensity of red fluorescence emitted when excited at 560 nm. [Ca^2+]i imaging was performed essentially as previously described using an inverted epifluorescence Nikon microscope with a 40× oil immersion objective lens (numerical aperture, 1.3). Cells were excited alternately with light at 340 and 380 nm (±10 mn bandpass filters, Chroma) using a monochrometer (TILL Photonics). Fluorescence images were captured and digitized with a digital camera driven by TILL Photonics software. Images were captured every 2 seconds with an exposure of 35 ms and no binning. 340/380 ratio images were calculated online and stored immediately to hard disk.
The effects of treatment were determined by normalizing the peak change in fluorescence ratio by stimulation following forskolin or 8-Br cGMP exposure to that of stimulation in control HEPES-PSS. Thus, pooled data represents a normalized fold increase over control for the treated trial. Two tailed heteroscedastic t-tests with P values<0.05 were considered to have statistical significance.
Similar experimental paradigms were employed to assess the effect of PKA-induced phosphorylation on a homogeneous population of S2^− InsP3R-1.
The effects of treatment were determined by normalizing the peak change in fluorescence ratio by stimulation following forskolin or 8-Br-cGMP exposure to that of stimulation in control HEPES-PSS. Thus, pooled data represent a normalized fold increase over control for the treated trial. In all cases where statistical significance is indicated, two-tailed heteroscedastic t tests were performed. P values<0.05 were considered to indicate statistical significance and are denoted by an asterisk in the figures.
The enhanced apparent sensitivity of individual phosphomimetic mutants was essentially equal and intermediate between the sensitivity of the S2−WT and S2−EE mutations. […] To address this possibility directly, experiments were performed evaluating the effects of activating endogenous PKA in cells expressing S2−SE or S2−ES to mimic prior phosphorylation of an individual site. […] To test this, experiments were performed to determine the phosphorylation state of the various mutants after raising cAMP levels. These experiments were performed in HEK-293 cells because of the high transfection efficiency and low endogenous levels of InsP3R-1 (47, 99). […]

Substance	phosphorylation of Ser-1755 after forskolin [1]	effect of forskolin treatment on CCh-induced [Ca^2+]i peak ([2]; 20 μM forskolin)	Ca^2+ release after PKA activation [2]	phosphorylation of Ser-1755 after forskolin ([1]; listed as S2−InsP3R-1)	phosphorylation of Ser-1755 after forskolin ([1]; listed as wild type S2^−InsP3R-1)	effect on subsequent CCh-induced Ca^2+ release ([2]; 100 nM, 500 nM or 1 μM forskolin)	fold potentiation of Ca^2+ release ([2]; 5 μM forskolin (threshold concentration))	fold increase in CCh-induced Ca^2+ release in the presence of forskolin ([2]; 20 μM forskolin, Fura-2, listed as wild-type S2^− InsP3R-1)	effect of forskolin treatment on CCh-induced [Ca^2+]i peak ([2]; 20 μM forskolin, listed as S2^− InsP3R-1)	effect of forskolin treatment on CCh-induced [Ca^2+]i peak ([2]; 20 μM forskolin, listed as wild type S2^− InsP3R-1)	effect of forskolin treatment on CCh-induced [Ca^2+]i peak ([2]; 20 μM forskolin, listed as wild-type S2^− InsP3R-1)
G1690A: InsP3R-1 S2− variant with glycine to alanine substitution at position 1690 (nucleotide binding site mutant)	not susceptible to phosphorylation; also recorded: not phosphorylated	strikingly absent; also recorded: fails to potentiate	–	–	–	–	–	–	–	–	–
S2−EE: phosphomimetic S1589E/S1755E mutant of the short splice variant	no phosphorylation	no potentiation	No change/NT	–	–	–	–	–	–	–	–
S2−ES: phosphomimetic short splice variant S1589E	no phosphorylation; also recorded: lack of phosphorylation	no potentiation	No change/NT	–	–	–	–	–	–	–	–
S2−SE: phosphomimetic short splice variant of S1755E	no phosphorylation	no potentiation	No change/NT	–	–	–	–	–	–	–	–
S2−WT: wild-type rat type-1 InsP3 receptor, peripheral short S2− splice variant (SEQ ID NO: 17)	–	dramatic potentiation; also recorded: markedly potentiated	Enhanced	results in phosphorylation	robustly phosphorylated	failed to enhance	1.26±0.21 fold	~3 fold and ~4 fold	potentiated Ca^2+ release	enhanced CCh stimulated Ca^2+ release	marked potentiation
